Laboratory results: patent publication US7101967B2, “Transport vectors” (priority 1998, dated 2006)
Square brackets hold non-standard residues; d marks the D form. Peptide text beside a SMILES is read from it. * marks the point of attachment. X3 = COc1cc([C@@H]2c3cc4c(cc3[C@@H](Nc3ccc(NC(=O)CCN5C(=O)CC(*)C5=O)cc3)[C@H]3COC(=O)[C@H]23)OCO4)cc(O)c1O; Biotin = O=C1N[C@H]2[C@H](CS[C@H]2CCCCC(=O)*)N1; βAla = NCCC(=O)O

System: live cells
Experiment: Visualisation of cell internalisation (biotin-avidin and direct fluorescein probe)
Assay type: cell-based
Details: FIG. 4, visualisation in cells
Method: This assay permitted the study and measurement of cell internalisation without the possibility of observing artefacts emanating from the cell manipulations necessary with the biotinylated peptides. […] (squares when t=10 mins, diamonds when t=60 mins). […] Nuceolar accumulation may be due to non-specific binding of the positively charged peptide to DNA.

Q: For “Biotinyl-βAla-Arg-Gln-Ile-Lys-Ile-Trp-Phe-Gln-Asn-Arg-Arg-Met-Lys-Trp-Lys-Lys-NH2 (ARQIKIWFQNRRMKWKK; N-terminal biotin, beta-residue; C-terminal amide; MOD_RES (1) bAla) [Peptide 1]”, which “subcellular localisation after internalisation” value is on record?
A: localises predominantly to the cell nucleus and accumulates in the nucleoli, with lesser concentration in the cytosol

System: not listed separately
Experiment: Maximum tolerated dose by iv administration in mice
Details: mouse, in vivo

Q: With `CC[C@H](C)[C@H](NC(=O)[C@H](CCCCN)NC(=O)[C@@H](NC(=O)[C@H](CCC(N)=O)NC(=O)[C@H](CCCNC(=N)N)NC(=O)[C@@H](N)CSC1CC(=O)N(CCC(=O)O[C@H]2c3cc4c(cc3[C@@H](c3cc(OC)c(OC)c(OC)c3)[C@H]3C(=O)OC[C@@H]32)OCO4)C1=O)[C@@H](C)CC)C(=O)N[C@@H](Cc1c[nH]c2ccccc12)C(=O)N[C@@H](Cc1ccccc1)C(=O)N[C@@H](CCC(N)=O)C(=O)N[C@@H](CC(N)=O)C(=O)N[C@@H](CCCNC(=N)N)C(=O)N[C@@H](CCCNC(=N)N)C(=O)N[C@@H](CCSC)C(=O)N[C@@H](CCCCN)C(=O)N[C@@H](Cc1c[nH]c2ccccc12)C(=O)N[C@@H](CCCCN)C(=O)N[C@@H](CCCCN)C(=O)NCC(=O)N[C@@H](CS)C(=O)NCC(N)=O` (some centres unmarked) [podophyllotoxin, 16-mer] as the compound, how does the MTD read?
A: ~40 mg/kg

System: purified recombinant human topoisomerase II
Experiment: Topoisomerase II inhibition assay (cleavage and relaxation of plasmid DNA)
Assay type: biochemical
Design: key: I denotes inhibition of relaxation of supercoiled plasmid by topoisomerase II; C denotes accumulation of topoisomerase II reaction intermediate
Details: test compound at 1 mM, 100 μM, or 10 μM final concentration; cleavage and relaxation assays
Method: Topoisomerase II assay—Plasmid DNA (0.3 μg) was incubated at 37° C. with 4 units of purified recombinant human topoisomerase II in cleavage buffer (30 mM Tris.HCl, pH 7.6, 60 mM NaCl, 3 mM ATP, 15 mM mercaptoethanol, 8 mM MgCl2) with or without the addition of test compound (at 1 mM, 100 μM, or 10 μM final concentration). Reactions were stopped by the immediate addition of SDS (1% w/v final). Samples were treated with proteinase K (30 min at 37° C.) and extracted twice with an equal volume of 42:1 CHCl3/i-amyl alcohol. After adding loading dye samples were loaded to a 4×TAE, 1% agarose gel containing […] ethidium bromide and electrophoresed for 16-24 h. Topoisomerase II inhibition was judged by the production of linear plasmid DNA, representing trapped cleavage intermediate, and by the ratio of substrate (spercoiled DNA) to product (relaxed DNA). A relaxation assay was performed identically, except that the reaction buffer was optimised for the detection of catalysis rather than cleavage i.e. only 2 units of enzyme were used per sample. The reaction buffer was 50 mM Tris.HCl, pH 8, 120 mM KCl, 0.5 mM ATP, 0.5 mM dithiothreitol, 10 mM MgCl2. Topoisomerase II inhibition was judged by the ratio of substrate (supercoiled DNA) to product (relaxed DNA).

Q: For `COc1cc(C2c3cc4c(cc3C(Nc3ccc(N)cc3)C3COC(=O)C23)OCO4)cc(OC)c1O` (centres unmarked) [4′-Demethyl-4-(4″-aminoanilino)epipodophyllotoxin, reference compound], which “Activity observed (topoisomerase II)” value is on record?
A: I

Q: For `COc1cc([C@@H]2c3cc4c(cc3[C@@H](Nc3ccc(NC(=O)CCN5C(=O)CC(SC[C@H](N)C(=O)NCCC(=O)N[C@@H](CCCNC(=N)N)C(=O)N[C@@H](CCCNC(=N)N)C(=O)N[C@@H](CCSC)C(=O)N[C@@H](CCCCN)C(=O)N[C@@H](Cc6c[nH]c7ccccc67)C(=O)N[C@@H](CCCCN)C(=O)N[C@@H](CCCCN)C(N)=O)C5=O)cc3)[C@H]3COC(=O)[C@H]23)OCO4)cc(O)c1O` (stereo partly drawn) [4′-Demethyl-4-[4″-aminoanilino-(succinimidopropionoyl)-(H-Cys-βAla-Arg-Arg-Met-Lys-Trp-Lys-Lys-NH2)]epipodophyllotoxin] (H-C(X3)[βAla]RRMKWKK-NH2), which “Activity observed (topoisomerase II)” value is on record?
A: I

System: HaCaT cells
Experiment: Peptide internalisation assay (biotinylated peptides, alkaline phosphatase-streptavidin detection)
Assay type: cell-based, human
Details: FIG. 2, one peptide concentration, same pattern regardless of concentration
Method: HaCaT cells (immortalised ‘normal’ human […] cell line) were seeded into 96-well plates at 50,000 cells per well in medium (DMEM) with 10% foetal calf serum and antibiotics. After an overnight incubation, peptides were prepared as dilution series in cell medium and were added to the cells. At the end of the incubation period (usually 10 and 60 min), the cells were rinsed three times with PBS and fixed for 20 min at −20° C. in EtOH/AcOH (95:5). After the fixation, the cells were made permeable by treatment for 10 min with PBS containing 3% Tween-20. Endogenous alkaline phosphatase activity was neutralised by incubation at 65° C. for 60 min. Cells were incubated for 30 min at room temperature with alkaline phosphatase-streptavidin (Pierce Chemical Co., Rockford, Ill., USA) in 0.1% BSA in PBS and washed extensively with PBS. Freshly prepared substrate solution (1 mg/mL p-nitrophenyl phosphate disodium (Pierce Chemical Co.) in 10 mM diethanolamine (pH 9.5) containing 0.5 mM MgCl, was added to each well and incubated until sufficient colour had developed (approximately 30 min.). The enzymatic reaction was stopped by adding 50 μL 2 M aq NaOH to each well. Alkaline phosphatase activity was measured spectrophotometrically at 405 nm.

Q: For “Biotinyl-βAla-Arg-Met-Lys-Trp-Lys-Lys-NH2 (Biotin-[βAla]RMKWKK-NH2; SMILES CSCC[C@H](NC(=O)[C@H](CCCNC(=N)N)NC(=O)CCNC(=O)CCCC[C@@H]1SC[C@@H]2NC(=O)N[C@@H]21)C(=O)N[C@@H](CCCCN)C(=O)N[C@@H](Cc1c[nH]c2ccccc12)C(=O)N[C@@H](CCCCN)C(=O)N[C@@H](CCCCN)C(N)=O) [Peptide 20]”, which “degree of internalisation / membrane translocation relative to control peptide 1” value is on record?
A: severe drop

Q: For “Biotinyl-βAla-Ile-Trp-Phe-Gln-Asn-Arg-Arg-Met-Lys-Trp-Lys-Lys-NH2 (Biotin-[βAla]IWFQNRRMKWKK-NH2; SMILES CC[C@H](C)[C@H](NC(=O)CCNC(=O)CCCC[C@@H]1SC[C@@H]2NC(=O)N[C@@H]21)C(=O)N[C@@H](Cc1c[nH]c2ccccc12)C(=O)N[C@@H](Cc1ccccc1)C(=O)N[C@@H](CCC(N)=O)C(=O)N[C@@H](CC(N)=O)C(=O)N[C@@H](CCCNC(=N)N)C(=O)N[C@@H](CCCNC(=N)N)C(=O)N[C@@H](CCSC)C(=O)N[C@@H](CCCCN)C(=O)N[C@@H](Cc1c[nH]c2ccccc12)C(=O)N[C@@H](CCCCN)C(=O)N[C@@H](CCCCN)C(N)=O) [Peptide 14]”, which “degree of internalisation / membrane translocation relative to control peptide 1” value is on record?
A: only about half of the original signal was left

Q: For “Biotinyl-βAla-Trp-Phe-Gln-Asn-Arg-Arg-Met-Lys-Trp-Lys-Lys-NH2 (Biotin-[βAla]WFQNRRMKWKK-NH2; SMILES CSCC[C@H](NC(=O)[C@H](CCCNC(=N)N)NC(=O)[C@H](CCCNC(=N)N)NC(=O)[C@H](CC(N)=O)NC(=O)[C@H](CCC(N)=O)NC(=O)[C@H](Cc1ccccc1)NC(=O)[C@H](Cc1c[nH]c2ccccc12)NC(=O)CCNC(=O)CCCC[C@@H]1SC[C@@H]2NC(=O)N[C@@H]21)C(=O)N[C@@H](CCCCN)C(=O)N[C@@H](Cc1c[nH]c2ccccc12)C(=O)N[C@@H](CCCCN)C(=O)N[C@@H](CCCCN)C(N)=O) [Peptide 15]”, which “degree of internalisation / membrane translocation relative to control peptide 1” value is on record?
A: only about half of the original signal was left

Same assay, conditions: assay of section 1.3

Q: With KKWKORR as the compound, how does the “internalised into cells / active in the cell internalisation assay (qualitative)” value (“internalised into cells / active” for short) read?
A: internalised into cells

Q: For KRMKWKK, which “internalised into cells / active” value is on record?
A: internalised into cells

Q: Which “internalised into cells / active” value does the source give for NRRMKWKK here?
A: internalised into cells

Q: For QNRRMKWKK, which “internalised into cells / active” value is on record?
A: internalised into cells

Q: For RKMKWKK, which “internalised into cells / active” value is on record?
A: internalised into cells

Q: Which “internalised into cells / active” value does the source give for RORKWKK here?
A: internalised into cells

Q: Which “internalised into cells / active” value does the source give for RREKWKK here?
A: internalised into cells

Q: Which “internalised into cells / active” value does the source give for RRMKKWK here?
A: internalised into cells

Q: Which “internalised into cells / active” value does the source give for RRMKQKK here?
A: internalised into cells

Q: For RRMKWFK, which “internalised into cells / active” value is on record?
A: internalised into cells

Q: For RRMKWKK, which “internalised into cells / active” value is on record?
A: internalised into cells

Q: With RRMWKKK as the compound, how does the “internalised into cells / active” value read?
A: internalised into cells

Q: Which “internalised into cells / active” value does the source give for RROKKWK here?
A: internalised into cells

Q: Which “internalised into cells / active” value does the source give for RROKWKK [O = norleucine] here?
A: internalised into cells

Q: For RROWKKK, which “internalised into cells / active” value is on record?
A: internalised into cells

Q: For RRQKWKK, which “internalised into cells / active” value is on record?
A: internalised into cells
